Source: patent US9108921B2, “Therapeutic compounds and compositions” (AGIOS PHARMACEUTICALS, INC, priority 2014, dated 2015)

Assays:
Format in all cases: biochemical
[1] = target: PKR R532W (Homo sapiens, UniProt P30613, R532W); experiment: PKR Mutant Assay, AC50 against PKR R532W; settings: mutant PKR R532W enzyme
Experimental: (§1) • PKR or PKR mutant enzyme solution was diluted in assay buffer. • 2 μL of test compound was added into wells first, and then 180 μL reaction mix was added. • Reactions mixture with test compound was assembled except for ADP, and plates were stored for 60 minutes at room temperature. • 20 uL ADP was added to start reaction at room temperature and reaction progress was measured as changes in absorbance at 340 nm wavelength at room temperature.
(§2) Test Compound Preparation: • Test compound stock was made at 100× concentration in 100% DMSO (10 mM) • 1 to 3 dilutions were made for 11 points (i.e. 50 μl of first concentration added to 100 μl 100% DMSO to yield 3.33 mM, 50 μl of this added to 100 μl DMSO to yield 1.11 mM, and so forth) • 1 to 100 dilution into assay (2 μl in 200 μl) yielded starting concentration of 100 μM, decreasing 3 fold for 11 points. Assay Buffer: 100 mM KCl, 50 mM Tris 7.5, 5 mM MgCl2, 1 mM DTT, 0.03% BSA Reaction Mixture: PKR mutant enzyme: 80-400 ng/well; ADP: 0.22-1.65 mM; PEP: 0.1-0.5 mM; NADH: 180 uM; LDH: 0.5 units (Sigma#59023); DTT: 1 mM; BSA: 0.03%.

[2] = target: PKR R510Q (Homo sapiens, UniProt P30613, R510Q); experiment: PKR Mutant Assay, AC50 against PKR R510Q; settings: mutant PKR R510Q enzyme
Experimental: as §1, §2

[3] = target: PKR WT (Homo sapiens, UniProt P30613); experiment: PKR WT enzymatic AC50 assay; settings: wild type PKR
Experimental: as §1, §2

Chain of PKR R532W (P30613 whole entry R532W): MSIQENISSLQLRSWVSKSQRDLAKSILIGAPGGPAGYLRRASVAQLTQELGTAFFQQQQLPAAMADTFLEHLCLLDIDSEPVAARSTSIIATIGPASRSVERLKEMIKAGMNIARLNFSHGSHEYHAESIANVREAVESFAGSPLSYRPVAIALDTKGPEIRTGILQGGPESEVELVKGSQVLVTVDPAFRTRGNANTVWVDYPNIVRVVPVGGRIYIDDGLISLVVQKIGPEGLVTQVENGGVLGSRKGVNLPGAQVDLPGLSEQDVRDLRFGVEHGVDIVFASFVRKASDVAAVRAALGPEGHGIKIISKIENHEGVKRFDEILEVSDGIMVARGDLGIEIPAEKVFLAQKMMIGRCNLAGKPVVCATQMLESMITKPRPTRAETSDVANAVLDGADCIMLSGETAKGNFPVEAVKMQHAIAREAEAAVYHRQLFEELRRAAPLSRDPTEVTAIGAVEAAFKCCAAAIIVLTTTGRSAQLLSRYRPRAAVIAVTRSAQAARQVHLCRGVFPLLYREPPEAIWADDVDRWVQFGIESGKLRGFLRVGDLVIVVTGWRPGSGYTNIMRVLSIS
Chain of PKR WT (P30613 whole entry): as the sequence (P30613 whole entry R532W) above, with W532R counted along it
Chain of PKR R510Q (P30613 whole entry R510Q): as the sequence (P30613 whole entry R532W) above, with R510Q, W532R counted along it

O=C(c1ccc(NS(=O)(=O)c2ccc(F)c3cccnc23)c(F)c1)N1CCC(O)(c2cccc(F)c2F)CC1 [Compound 277]
AC50 [1]: 101 to 1000 nM
AC50 [2]: 1010 to 10000 nM
AC50 [3]: 101 to 1000 nM

N#Cc1cccc(C2(O)CCN(C(=O)c3ccc(NS(=O)(=O)c4cccc5cccnc45)cc3)CC2)c1 [Compound 278]
AC50 [1]: 101 to 1000 nM
AC50 [2]: 1010 to 10000 nM
AC50 [3]: 101 to 1000 nM

O=C(c1ccc(NS(=O)(=O)c2csc3cccnc23)cc1)N1CCC(O)(c2ccccc2Cl)CC1 [Compound 280]
AC50 [1]: 101 to 1000 nM
AC50 [2]: 1010 to 10000 nM
AC50 [3]: 101 to 1000 nM

O=C(c1ccc(NS(=O)(=O)c2cccc3cnccc23)cc1)N1CCC(O)(Cc2ccccc2)CC1 [Compound 283]
AC50 [1]: 101 to 1000 nM
AC50 [2]: 1010 to 10000 nM
AC50 [3]: 101 to 1000 nM

O=C(c1ccc(NS(=O)(=O)c2cccc3cccnc23)cc1)N1CCC(O)(c2cccc3c2OCCO3)CC1 [Compound 284]
AC50 [1]: 101 to 1000 nM
AC50 [2]: 1010 to 10000 nM
AC50 [3]: 101 to 1000 nM

COc1cccnc1C1(O)CCN(C(=O)c2ccc(NS(=O)(=O)c3cccc4cccnc34)cc2)CC1 [Compound 285]
AC50 [1]: 101 to 1000 nM
AC50 [2]: > 10000 nM
AC50 [3]: 101 to 1000 nM

O=C(c1ccc(NS(=O)(=O)c2cccc3cccnc23)cc1)N1CCC(O)(c2cccc(F)n2)CC1 [Compound 286]
AC50 [1]: 101 to 1000 nM
AC50 [2]: 1010 to 10000 nM
AC50 [3]: 101 to 1000 nM

CC(C)CC1(O)CCN(C(=O)c2ccc(NS(=O)(=O)c3ccc(O)c4nccnc34)cc2)CC1 [Compound 289]
AC50 [1]: 101 to 1000 nM
AC50 [2]: 1010 to 10000 nM
AC50 [3]: 101 to 1000 nM

O=C(c1cc(F)c(NS(=O)(=O)c2cccc3cccnc23)cc1F)N1CCC(O)(c2ccccc2)CC1 [Compound 290]
AC50 [1]: 101 to 1000 nM
AC50 [2]: 1010 to 10000 nM
AC50 [3]: 101 to 1000 nM

CC(C)(O)CCC1(O)CCN(C(=O)c2ccc(NS(=O)(=O)c3cccc4cccnc34)cc2)CC1 [Compound 292]
AC50 [1]: 1010 to 10000 nM
AC50 [2]: 1010 to 10000 nM
AC50 [3]: 101 to 1000 nM

Cc1nc2c(S(=O)(=O)Nc3ccc(C(=O)N4CCC(O)(c5ccccc5Cl)CC4)cc3)cccc2s1 [Compound 293]
AC50 [1]: 101 to 1000 nM
AC50 [2]: 1010 to 10000 nM
AC50 [3]: 101 to 1000 nM

O=C(c1ccc(NS(=O)(=O)c2cccc3nsnc23)cc1)N1CCC(O)(c2ccccc2)CC1 [Compound 294]
AC50 [1]: 1010 to 10000 nM
AC50 [2]: > 10000 nM
AC50 [3]: 1010 to 10000 nM

CC1(O)CCN(C(=O)c2ccc(NS(=O)(=O)c3cccc4cccnc34)cc2)CC1 [Compound 296]
AC50 [1]: 1010 to 10000 nM
AC50 [2]: > 10000 nM
AC50 [3]: 1010 to 10000 nM

O=C(c1ccc(NS(=O)(=O)c2ccccc2C(F)(F)F)cc1)N1CCC(O)(Cc2ccccc2)CC1 [Compound 297]
AC50 [1]: 1010 to 10000 nM
AC50 [2]: 1010 to 10000 nM
AC50 [3]: 1010 to 10000 nM

O=C(c1ccc(NS(=O)(=O)c2cccc3cccnc23)cn1)N1CCC(O)(c2ccccc2)CC1 [Compound 298]
AC50 [1]: 1010 to 10000 nM
AC50 [2]: > 10000 nM
AC50 [3]: 1010 to 10000 nM

O=C(c1ccc(NS(=O)(=O)c2cccc3ncccc23)cc1)N1CCC(O)(c2ccccc2)CC1 [Compound 300]
AC50 [1]: 1010 to 10000 nM
AC50 [2]: > 10000 nM
AC50 [3]: 1010 to 10000 nM

O=C(c1ccc(NS(=O)(=O)c2cccc3cccnc23)c(F)c1F)N1CCC(O)(c2ccccc2)CC1 [Compound 302]
AC50 [1]: 1010 to 10000 nM
AC50 [2]: > 10000 nM
AC50 [3]: 1010 to 10000 nM

O=C(c1ccc(NS(=O)(=O)c2c(F)ccc3ncsc23)cc1)N1CCC(O)(c2ccccc2Cl)CC1 [Compound 303]
AC50 [1]: 1010 to 10000 nM
AC50 [2]: > 10000 nM
AC50 [3]: 1010 to 10000 nM

COc1nc(C(=O)N2CCC(O)(c3ccccc3)CC2)ccc1NS(=O)(=O)c1cccc2cccnc12 [Compound 304]
AC50 [1]: 1010 to 10000 nM
AC50 [2]: > 10000 nM
AC50 [3]: 1010 to 10000 nM

O=C(c1ccc(NS(=O)(=O)c2cccc3cccnc23)nc1)N1CCC(O)(c2ccccc2)CC1 [Compound 306]
AC50 [1]: 1010 to 10000 nM
AC50 [2]: > 10000 nM
AC50 [3]: 1010 to 10000 nM

O=C(c1ccc(NS(=O)(=O)c2cccc(OC(F)(F)F)c2)cc1)N1CCC(O)(Cc2ccccc2)CC1 [Compound 307]
AC50 [1]: 1010 to 10000 nM
AC50 [2]: > 10000 nM
AC50 [3]: 1010 to 10000 nM

O=C(c1ccc(NS(=O)(=O)c2cccc3c2OC(F)(F)O3)cc1)N1CCC(O)(c2ccccc2Cl)CC1 [Compound 308]
AC50 [1]: 1010 to 10000 nM
AC50 [2]: > 10000 nM
AC50 [3]: 1010 to 10000 nM
